Measurements taken from ChEMBL document CHEMBL5608141, “Identification of compartment-specific drug sensitivities in CRC organoid-stroma co-cultures” (2024).

Tests used:
Format in all cases: functional, Homo sapiens
Parameters in all cases: dose or concentration left out as unconfirmed
Colon cancer organoid [1] = test: Identification of compartment-specific drug sensitivities in O06 CRC organoid-stroma F06 CAF co-cultures. Organoid is transduced with Lucferase2-P2A-EGFP lentivirus, fibroblast with Renilla-dsRed lentivirus. Dual-Glo Luciferase assay is used to report viability data.
Colon cancer organoid [2] = test: Identification of compartment-specific drug sensitivities in O14 CRC organoid-stroma F14 CAF co-cultures. Organoid is transduced with Lucferase2-P2A-EGFP lentivirus, fibroblast with Renilla-dsRed lentivirus. Dual-Glo Luciferase assay is used to report viability data.
Colon cancer organoid [3] = test: Identification of compartment-specific drug sensitivities in O20 CRC organoid-stroma F20 CAF co-cultures. Organoid is transduced with Lucferase2-P2A-EGFP lentivirus, fibroblast with Renilla-dsRed lentivirus. Dual-Glo Luciferase assay is used to report viability data.
[4] = Transduced with Lucferase2-P2A-EGFP lentivirus
[5] = Transduced with Renilla-dsRed lentivirus

Structure (SMILES)	Cell Viability (Colon cancer organoid [1]; [4]) [%]	Cell Viability (Colon cancer organoid [1]; [5]) [%]	Cell Viability (Colon cancer organoid [2]; [4]) [%]	Cell Viability (Colon cancer organoid [2]; [5]) [%]	Cell Viability (Colon cancer organoid [3]; [4]) [%]	Cell Viability (Colon cancer organoid [3]; [5]) [%]
Cc1ccc2[nH]c(CNCCCc3ccncc3)cc(=O)c2c1 [UCSF924NC]	92.2965	82.507	107.168	100.112	121.808	109.302
CCc1cc(Nc2nccc(-c3c(-c4ccc(OC)c(C(=O)Nc5c(F)cccc5F)c4)nc4ccccn34)n2)c(OC)cc1N1CCC(N2CCN(S(C)(=O)=O)CC2)CC1	86.7992	78.7013	103.898	108.534	117.027	82.2783
Cn1cc(-c2[nH]c3cc(NC(=O)[C@H](N)C4CCCCC4)cc4c3c2C=NNC4=O)cn1	9.334	180.436	1.912	87.1489	23.2406	172.741
C[C@@H](c1cccc(CN)c1)n1cc(Cl)cc(C(N)=O)c1=N.Cl	104.535	114.984	112.906	94.626	85.1763	93.567
Cn1nc(C(F)(F)F)cc1-c1cnc(N2CCc3cc(S(=O)(=O)Nc4c(F)cc(Cl)cc4F)cc(N4CCCC4=O)c32)nc1 [TP-020]	69.3758	110.898	113.877	116.294	86.7802	95.2287
CCn1cc(-c2ccnc3[nH]c(-c4cccc(CN(C)C)c4)cc23)c(-c2ccc(NC(=O)N(C)C)cc2)n1 [GSK-1070916]	8.589	116.692	13.7383	103.854	9.494	207.056
Cc1cc(NC(=O)c2cccc(S(F)(F)(F)(F)F)c2)cc(-n2ccn3nc(-c4cccnc4)cc23)c1 [BAY-309]	58.4282	47.7134	149.605	88.4633	122.672	127.793
C[C@H](NC(=O)c1cnc2n1[C@](C)(Cc1ccc(C#N)cc1)C(=O)N2c1cc(Cl)c(F)c(Cl)c1)C(=O)NC1(c2ccccn2)CC1 [BI 1950]	112.036	408.477	98.1816	100.374	121.807	97.0159
CN(C)C(=O)c1cc2cnc(Nc3ccc(N4CCNCC4)cn3)nc2n1C1CCCC1 [RIBOCICLIB]	54.2961	126.231	43.0147	103.263	36.7036	144.514
Cc1nnc2c3ccccc3c(N[C@@H](C)[C@H](c3ccccc3)N(C)C)nn12	95.7989	115.114	110.519	106.748	82.8594	127.368
CC(=O)Nc1nc(CN2CCC[C@H](Cc3cc(C)nc(C)c3)C2)cs1 [JNJ-73924149]	82.0789	131.954	104.416	83.6177	90.3874	105.251
CC(=O)Nc1cccc(-n2c(=O)n(C3CC3)c(=O)c3c(Nc4ccc(I)cc4F)n(C)c(=O)c(C)c32)c1 [TRAMETINIB]	4.775	48.8246	7.5472	16.7625	2.051	46.1337
c1ccc(C2CCN(c3cnc4c(N5CCOCC5)nccn34)CC2)cc1	25.484	144.176	130.379	77.7891	90.2822	108.246
